# US9382244B2, “7-azaindole-2,7-naphthyridine derivative for the treatment of tumours” (Merck Patent GmbH, priority 2012, dated 2016)
# Experiments:
# [1] = biological target: T1, Human ALK1 (Homo sapiens, UniProt P37023); test: Test for the inhibition of ALK-1; format: biochemical; conditions: Human ALK1, casein substrate, ATP 10 μM
# T1 construct: purchased ALK1
# Procedure: Test for the Inhibition of ALK-1
# (Serine/threonine-protein kinase receptor R3, activin receptor-like kinase 1, ALK-1, TGF-B superfamily receptor type I, TSR-I, SKR3, ACVRLK1)
# Substrate: Casein, 20 mg/ml
# [2] = system: TGF-beta-mediated growth inhibition, lung epithelial cell line Mv1Lu; test: Cellular TGF-beta assay: elimination of TGF-beta-mediated growth inhibition; format: cell-based
# Procedure: In-Vitro (Enzyme) Assay for Determination of the Efficacy of the Inhibitors of the Inhibition of TGF-Beta-Mediated Effects
# As an example, the ability of the inhibitors to eliminate TGF-beta-mediated growth inhibition is tested.
# Cells of the lung epithelial cell line Mv1Lu are sown in a defined cell density in a 96-well microtitre plate and cultivated overnight under standard conditions. Next day, the medium is replaced by medium which comprises 0.5% of FCS and 1 ng/ml of TGF-beta, and the test substances are added in defined concentrations, generally in the form of dilution series with 5-fold steps. The concentration of the solvent DMSO is constant at 0.5%. After a further two days, Crystal Violet staining of the cells is carried out. After extraction of the Crystal Violet from the fixed cells, the absorption is measured spectrophotometrically at 550 nm. It can be used as a quantitative measure of the adherent cells present and thus of the cell proliferation during the culture.
# [3] = biological target: T2, TGF-beta kinase ALK5 (GST-ALK5) (Homo sapiens, UniProt P36897); test: Test for the inhibition of ALK-5 (flashplate kinase assay); format: biochemical; conditions: enzymatic; GST-ALK5, GST-SMAD2 substrate; read-out: IC50 [nM] [TGF-beta] enzym. ALK5
# T2 sequence (P36897 34-503): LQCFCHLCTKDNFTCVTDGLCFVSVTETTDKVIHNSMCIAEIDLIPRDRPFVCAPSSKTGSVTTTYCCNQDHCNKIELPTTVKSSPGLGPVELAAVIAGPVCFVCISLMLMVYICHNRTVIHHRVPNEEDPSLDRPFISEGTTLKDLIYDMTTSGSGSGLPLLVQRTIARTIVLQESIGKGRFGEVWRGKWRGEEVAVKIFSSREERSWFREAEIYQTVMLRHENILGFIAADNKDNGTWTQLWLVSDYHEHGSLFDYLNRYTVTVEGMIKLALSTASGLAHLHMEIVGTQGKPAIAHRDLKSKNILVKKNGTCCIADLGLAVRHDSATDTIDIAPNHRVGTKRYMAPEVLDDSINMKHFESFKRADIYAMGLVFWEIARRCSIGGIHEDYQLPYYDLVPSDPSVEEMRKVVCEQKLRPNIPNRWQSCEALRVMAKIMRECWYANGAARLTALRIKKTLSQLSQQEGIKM
# Procedure: Test for the Inhibition of ALK-5
# The experimental batches are carried out in a flashplate system with 384 wells/microtitre plate.
# In each case, 31.2 nM of GST-ALK5, 439 nM of GST-SMAD2 and 3 mM of ATP (with 0.3 μCi of 33P-ATP/well) in a total volume of 35 μl of buffer (20 mM HEPES, 10 mM MgCl2, 5 mM MnCl2, 1 mM DTT, 0.1% of BSA, pH 7.4) per well are incubated without or with test substance at 5 to 10 different concentrations at 30 C for 45 min. The reaction is stopped using 25 μl of 200 mM EDTA solution and filtered off with suction after 30 min at room temperature.
# The wells are washed 3 times with 100 μl of 0.9% aqueous NaCl solution, and the residual radioactivity is measured in a TopCount instrument (Perkin-Elmer). The IC50 values are calculated using the RS1 software.
# The radioactivity (decompositions per minute) of the blank value (no use of test substance in the presence of 100 nM staurosporine) is subtracted from all other radioactivity values. The controls (kinase activity without test substance) are set equal to 100 percent and all other radioactivity values (after subtracting the blank value) are expressed set in relation thereto (for example in % of the control).
# IC50 values (concentration of the test substance at 50% inhibition) are determined with the aid of statistics programmes, such as, for example, RS1.
# T1 sequence (P37023 22-503): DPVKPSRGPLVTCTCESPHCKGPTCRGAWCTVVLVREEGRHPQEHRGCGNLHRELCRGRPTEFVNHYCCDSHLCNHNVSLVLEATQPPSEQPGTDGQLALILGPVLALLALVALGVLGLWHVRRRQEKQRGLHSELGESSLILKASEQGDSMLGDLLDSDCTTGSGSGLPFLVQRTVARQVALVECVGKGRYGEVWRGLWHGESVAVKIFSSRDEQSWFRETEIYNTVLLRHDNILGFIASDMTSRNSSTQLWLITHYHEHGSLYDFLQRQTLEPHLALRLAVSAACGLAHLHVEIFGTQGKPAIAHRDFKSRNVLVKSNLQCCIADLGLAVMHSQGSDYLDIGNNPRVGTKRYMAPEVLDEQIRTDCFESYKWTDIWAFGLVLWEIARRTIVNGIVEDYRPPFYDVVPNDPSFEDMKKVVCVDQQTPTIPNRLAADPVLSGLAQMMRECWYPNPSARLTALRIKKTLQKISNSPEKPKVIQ
IC50 [1] [nM],IC50 [3] [nM],Structure (SMILES),IC50 [2] [nM]
79,4.6,"Cc1[nH]c2ncccc2c1-c1cnc(N)c2cnccc12 [4-(2-methyl-1H-pyrrolo[2,3-b]pyridin-3-yl)-2,7-naphthyridin-1-ylamine]",28
200,16,Cc1[nH]c2ncccc2c1-c1nccc2c(N)nccc12 [Compound A13],160
,13,Nc1ncc(-c2c[nH]c3ncccc23)c2ccncc12 [Compound A24],72
,43,Nc1nccc2c(-c3c[nH]c4ncccc34)nccc12 [Compound A32],770
